Counter-ions that a name gives are not always drawn.

Assay [1] has as its system Dog platelets (aggregation induced by U46619+adrenaline). As to the kind of experiment: Platelet aggregation in dogs (U46619 + adrenaline, PRP). In kind it is cell-based. The conditions noted are these: Canis lupus familiaris, adrenaline 10 μM then U46619 1.2 μM, 3 min preincubation, 37° C., read-out: IC50 (50% inhibition of the aggregation responses to U46619+adrenaline). As for the experimental part:
Platelet Aggregation in Dogs
After anesthesia of the animal with pentobarbital sodium (30 mg/kg i.v.), arterial blood is withdrawn onto sodium citrate (0.109M) (1 vol. of citrate per 9 vol. of blood). Platelet-rich plasma (PRP) is obtained after centrifugation (20° C.) at 200 g for 10 minutes. The number of platelets in the PRP is 300,000 PL/mm^3 on average. The PRP is stored at the temperature of the room until the time of the test, and is used within 4 hours following withdrawal from the animal.
Dog platelets respond weakly to U46619 alone. […] The PRP is incubated at 37° C. in the presence of the test antagonist for 3 minutes. Aggregation is then obtained by the addition of adrenaline (10 μM) followed by that of U46619 (1.2 μM) 30 seconds later. The effect of the antagonists is measured, and the IC50 is determined as the concentration of the antagonist needed to produce a 50% inhibition of the aggregation responses to U46619+adrenaline.

Assay [2] concerns the target T1, guinea pig trachea (contractions caused by U46619) (Cavia porcellus, UniProt A0A286Y4I8).
T1 sequence (A0A286Y4I8 1-347): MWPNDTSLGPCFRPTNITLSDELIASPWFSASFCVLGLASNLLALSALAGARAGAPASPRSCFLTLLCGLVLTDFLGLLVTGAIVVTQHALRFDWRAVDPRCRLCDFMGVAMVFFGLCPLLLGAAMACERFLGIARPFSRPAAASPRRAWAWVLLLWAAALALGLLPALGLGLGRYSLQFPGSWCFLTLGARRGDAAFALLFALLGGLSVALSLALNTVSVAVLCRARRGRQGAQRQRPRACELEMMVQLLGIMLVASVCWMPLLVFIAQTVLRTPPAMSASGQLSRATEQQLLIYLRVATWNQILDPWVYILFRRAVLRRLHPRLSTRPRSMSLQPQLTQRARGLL
As to the kind of experiment: pA2 on guinea pig trachea (U46619-induced contraction). In kind it is cell-based. The conditions noted are these: guinea pig tracheal rings; U46619 10^-9 M to 10^-5 M; antagonist contact 20 minutes.

Assay [3] concerns tracheal pressure in guinea pigs (bronchoconstriction caused by U46619). As to the kind of experiment: IC50 on tracheal pressure in guinea pigs (U46619-induced bronchoconstriction). In kind it is in vivo, guinea pig. The conditions noted are these: Cavia porcellus, iv, 5 min; anesthetized guinea pigs; U46619 2 μg/kg i.v.; antagonist injected 5 minutes before U46619; read-out: IC50 (dose of antagonist that inhibits by 50% the increase in tracheal pressure caused by U46619). The text has this:
ICso on Tracheal Pressure in Guinea Pigs
Male albino guinea pigs (350-400 g) subjected to an 18-hour water diet are anesthetized with ethyl carbamate (1.25 g/kg i.p.). A catheter is introduced into the carotid artery in order to measure the arterial blood pressure by means of a pressure cell. A second catheter is introduced into the jugular vein and is used to inject the pharmacological substances. The trachea is cannulated and the guinea pig is placed in assisted respiration by means of a respirator. The animal's temperature is maintained at 37° C. using a thermostatic blanket. A needle pushed in the tracheal cannula is connected to a pressure cell and enables the tracheal pressure to be recorded.
The guinea pigs are pretreated with d-tubocurarine (1 mg/kg i.v.) and with indomethacin (10 mg/kg i.v.). When injected at a dose of 2 μg/kg i.v., U46619 causes a bronchoconstriction which leads to an increase in tracheal pressure and induces an increase in arterial blood pressure. The responses to U46619 are reversible and reproducible if the injections are carried out every 10 minutes.
The thromboxane receptor antagonists are injected 5 minutes before the injections of U46619. The dose of antagonist that inhibits by 50% the increase in tracheal pressure caused by U46619 is determined (IC50).

The test system of assay [4] is platelets (aggregation induced by U46619). As to the kind of experiment: Platelet aggregation in man (U46619-induced, PRP). In kind it is cell-based. As to conditions: human PRP, procedure of Example 22 (U46619 1.2 μM), read-out: IC50 (50% inhibition of platelet aggregation induced by U46619). The protocol:
Platelet aggregation is carried out at 37° C. in siliconed glass tubes using an aggregometer. The PRP and the PL are stirred at 1000 rpm (revolutions per minute). In order to study the activity of thromboxane antagonists, the PRP is incubated for 1 min at 37° C., and the antagonist is then added for a period of 3 min before addition of the agonist U46619 (1.2 μM). The final volume in the measuring cell is then 250 μl. The intensity of platelet aggregation is established by taking the maximum amplitude of aggregation plots and is expressed as a percentage light transmission (% T). The activity of the antagonists is expressed as IC50, that is to say the concentration of the substance which induces a 50% inhibition of the aggregation response induced by U46619.
Platelet Aggregation in Man
Venous blood is obtained from human volunteers who have not taken aspirin for at least 14 days prior to the experiment. The blood is withdrawn onto sodium citrate (0.109M) (1 vol. of citrate to 9 vol. of blood). Platelet-rich plasma (PRP) is obtained after centrifugation (20° C.) at 200 g for 10 minutes. The number of platelets is 250,000 PL/mm^3 on average. The PRP is stored at the temperature of the room until the time of the test, and is used within 2 hours following withdrawal from the subject. The antagonists are tested according to the procedure described in Example 22.

In assay [5] the test system is platelets (aggregation induced by U46619, a TXA2 receptor agonist). In words: Platelet aggregation in rabbits (U46619-induced, PRP). In kind it is cell-based. As to conditions: Oryctolagus cuniculus, 0.05 h, rabbit PRP, U46619 1.2 μM, antagonist 3 min before agonist, 37° C., read-out: IC50 (50% inhibition of the aggregation response induced by U46619). The protocol: Platelet Aggregation in Rabbits
Rabbits (2-3 kg) are anesthetized with pentobarbital sodium (30 mg/kg i.v.). After cannulation of the left carotid artery, blood is withdrawn onto sodium citrate (0.109M) (1 vol. of citrate per 9 vol. of blood). Platelet-rich plasma (PRP) is obtained by centrifugation (20° C.) at 250 g for 20 minutes, and platelet-poor plasma (PPP) by centrifugation at 1000 g (10 min). The number of platelets (PL) in the PRP is adjusted to 300-350,000 PL/mm^3 by dilution with autologous PPP. The PRP is stored at the temperature of the room until the time of the test, and is used within 4 hours following withdrawal from the animal.
Platelet aggregation is carried out at 37° C. in siliconed glass tubes using an aggregometer. The PRP and the PL are stirred at 1000 rpm (revolutions per minute). In order to study the activity of thromboxane antagonists, the PRP is incubated for 1 min at 37° C., and the antagonist is then added for a period of 3 min before addition of the agonist U46619 (1.2 μM). The final volume in the measuring cell is then 250 μl. The intensity of platelet aggregation is established by taking the maximum amplitude of aggregation plots and is expressed as a percentage light transmission (% T). […]

On to `O=C(O)CCC/C=C\CC1(CCNS(=O)(=O)c2ccc(Br)cc2)CCCCC1` [Example 5, (5Z)-10-[(4-Bromophenyl)sulfonamido]-8,8-pentamethylene-5-decenoic acid sodium salt], for which the IC50 in assay [1] is 140 nM. In assay [2], this compound gave a Kb of 6.31 nM. Also, the ED50 in assay [3] was 0.066 mg/kg.

For `O=C(O)CC/C=C\CCC1(NS(=O)(=O)c2ccc(Cl)cc2)CCCC1` [Example 10, (4Z)-8-[(4-Chlorophenyl)sulfonamido]-8,8-tetramethylene-4-octenoic acid sodium salt], in assay [2], the Kb is 22.4 nM.

In the case of `O=C(O)CC/C=C\CCC1(CCNS(=O)(=O)c2ccc(Cl)cc2)CCCC1` [Example 14, (4Z )-10-[(4-Chlorophenyl)sulfonamido]-8,8-tetramethylene-4-decenoic acid sodium salt], in assay [4], the IC50 amounted to 800 nM.

For the compound `O=C(O)CC/C=C\CCC1(CNS(=O)(=O)c2ccc(Cl)cc2)CCCC1` [Example 9, (4Z)-9-[(4-Chlorophenyl)sulfonamido]-8,8-tetramethylene-4-nonenoic acid sodium salt], the IC50 in assay [4] came out at 200 nM. Moreover, in assay [2], the antagonist equilibrium constant (Kb) is 0.832 nM. Further, the ED50 in assay [3] is 0.011 mg/kg.

Regarding `O=C(O)CCC/C=C\CC1(CNS(=O)(=O)c2ccc(Cl)cc2)CCCC1` [Example 8, (5Z )-9-[(4-Chlorophenyl)sulfonamido]-8,8-tetramethylene-5-nonenoic acid sodium salt], the IC50 in assay [4] came out at 300 nM. In assay [2], the Kb was 0.234 nM. Further, the ED50 in assay [3] came to 0.007 mg/kg.

With `O=C(O)CC/C=C\CC1(CNS(=O)(=O)c2ccc(Cl)cc2)CCCCC1` [Example 7, (4Z)-8-[(4-Chlorophenyl)sulfonamido]-7,7-pentamethylene-4-octenoic acid sodium salt], the IC50 in assay [4] stood at 300 nM. This compound had a Kb in assay [2] of 0.398 nM. The ED50 in assay [3] worked out at 0.02 mg/kg.

The compound `O=C(O)CCC/C=C\CCC1(NS(=O)(=O)c2ccc(Cl)cc2)CCCC1` [Example 11, (5Z)-9-[(4-Chlorophenyl)sulfonamido]-9,9-tetramethylene-5-nonenoic acid sodium salt] had a Kb in assay [2] of 20 nM.

In the case of `O=C(O)CC/C=C\CC1(CCNS(=O)(=O)c2ccc(Cl)cc2)CCCCC1` [Example 2, (4Z ) -9-[(4-Chlorophenyl)sulfonamido]-7 , 7-pentamethylene-4-nonenoic acid sodium salt], the results for the IC50 in assay [5], in assay [1] and in assay [4] were 200 nM, 120 nM and 200 nM, respectively. This compound had a Kb in assay [2] of 3.98 nM. The ED50 in assay [3] worked out at 0.12 mg/kg.

Consider `O=C(O)CC/C=C\CC1(CCNS(=O)(=O)c2ccc(Cl)cc2)CCc2ccccc21` (stereo not drawn) [sodium salt], for which the Kb in assay [2] is 3.98 nM.

In the case of `Cc1ccc(S(=O)(=O)NCCC2(C/C=C\CCCC(=O)O)CCCCC2)cc1` [Example 4, (5Z)-10-[(4-Methylphenyl)sulfonamido]-8,8-pentamethylene-5-decenoic acid sodium salt], the IC50 in assay [1] was determined as 200 nM. This compound also had a Kb in assay [2] of 3.16 nM. In addition, the ED50 in assay [3] was determined as 0.105 mg/kg.

As to `O=C(O)CC/C=C\CC1(CNS(=O)(=O)c2ccc(Cl)cc2)CCCC1` [Example 6, (4Z) -8-[(4-Chlorophenyl)sulfonamido]-7,7-tetramethylene-4-octenoic acid sodium salt], the IC50 in assay [5] is 200 nM; in assay [4] it was 80 nM. This compound also showed a Kb in assay [2] of 0.724 nM. For the same compound, the ED50 in assay [3] came to 0.021 mg/kg.

`O=C(O)CC/C=C\CC1(CCNS(=O)(=O)c2ccc(Cl)cc2)CCCC1` [Example 3, (4Z)-9-[(4-Chlorophenyl)sulfonamido]-7,7-tetramethylene-4-nonenoic acid sodium salt]: the IC50 in assay [1] was determined as 60 nM; in assay [4], 80 nM. The compound also showed a Kb in assay [2] of 0.501 nM. Further, the ED50 in assay [3] is 0.019 mg/kg.

For the compound `O=C(O)CCC/C=C\CC1(CCNS(=O)(=O)c2ccc(Cl)cc2)CCCC1` [Example 12, (5Z)-10-[(4-Chlorophenyl)sulfonamido]-8,8-tetramethylene-5-decenoic acid sodium salt], the IC50 in assay [1] is 150 nM; in assay [4], 500 nM. The compound also had an antagonist equilibrium constant (Kb) in assay [2] of 1.05 nM. Further, the ED50 in assay [3] amounted to 0.009 mg/kg.

Regarding `O=C(O)CCC/C=C\CC1(CCNS(=O)(=O)c2ccc(Cl)cc2)CCCCC1` [Example 1, (5Z)-10-[(4-Chlorophenyl)sulfonamido]-8,8-pentamethylene-5-decenoic acid sodium salt], the IC50 in assay [1] was found to be 140 nM. The compound further showed a Kb in assay [2] of 0.398 nM. The ED50 in assay [3] came to 0.027 mg/kg.

The IC50 is the midpoint of a concentration-inhibition curve. What is called Kb is the equilibrium dissociation constant of an antagonist, usually derived from a functional assay. Low readings indicate higher antagonist affinity, high ones lower antagonist affinity.

(Values after patent US5436343A, “Alkenecarboxylic acid compounds” (Adir et Compagnie, priority 1992, dated 1995).)
